Data published in patent publication US20130189352A1 (ZHEJIANG UNIVERSITY, priority 2011, published 2013).
Values after ≈ are worked out from the molar mass of the structure shown. Where two headings read alike, the source gives them in different places.

Legend:
[1] = tested on: human promyelocytic leukemia cells (HL60); assay: MTT cytotoxicity test, HL60; assay type: cell-based; conditions: read-out: IC50 HL60
Method: (§1) The cells suspension solution was seeded in 96-well plates with 100 μL solution per well containing 5000-10000 cells. […] The drug-loaded liposomes and doxorubicin were separately solved in saline solutions. […] These different formulations were added 25 μl per well in increasing concentrations to the wells of the 96-well plate. The cells were allowed to grow for 24 hours before adding 31.5 μl MTT (5 mg/mL) per well. Finally, about 4 hours later, all of the culture medium was removed and the precipitates were dissolved in 200 μl dimethyl sulfoxide (DMSO). […] The above tests were repeated three times for each group and each concentration has four wells. […] The IC50 values were calculated by IC50.exe software.

[2] = tested on: doxorubicin-resistance human promyelocytic leukemia cell (HL60/ADR); assay: MTT cytotoxicity test, HL60/ADR; assay type: cell-based; conditions: read-out: IC50 HL60/ADR
Method: as §1

[3] = tested on: doxorubicin-resistant human breast cancer MCF-7 (MCF-7/ADR); assay: MTT cytotoxicity test, MCF-7/ADR; assay type: cell-based; conditions: NCI/ADR-RES, read-out: IC50 MCF-7/ADR
Method: as §1

[4] = cited from earlier work
[5] = tested on: human breast cancer cells (MCF-7); assay: MTT cytotoxicity test, MCF-7; assay type: cell-based; conditions: read-out: IC50 MCF-7
Method: as §1

[6] = MTT, 24 hours drug exposure, concentrations based on the amount of doxorubicin

| SMILES | IC50 ([1]; HL-60, MTT, 24 hours drug exposure, concentrations based on the amount of doxorubicin) [µg/mL] | IC50 [2, 6] [µg/mL] | IC50 [3, 6] [µg/mL] | PKa [4] | IC50 ([5]; MCF7, MTT, 24 hours drug exposure, concentrations based on the amount of doxorubicin) [µg/mL] | IC50 ([1]; HL-60, 24 h) [µg/mL] | IC50 ([2]; 24 h) [µg/mL] | IC50 ([3]; 24 h) [µg/mL] | IC50 ([5]; MCF7, 24 h) [µg/mL] |
| --- | --- | --- | --- | --- | --- | --- | --- | --- | --- |
| COc1cccc2c1C(=O)c1c(O)c3c(c(O)c1C2=O)C[C@@](O)(C(=O)CO)C[C@@H]3O[C@H]1C[C@H](N)[C@H](O)[C@H](C)O1 [Control 1, doxorubicin] | 0.4 (≈ 0.736 µM) | 13.6 (≈ 25 µM) | 15.7 (≈ 28.9 µM) | 4.0 | 0.4 (≈ 0.736 µM) | – | – | – | – |
| CCN(CC)CCCC(C)Nc1ccnc2cc(Cl)ccc12 (stereo not drawn) [Control 2, chloroquine] | – | – | – | – | – | 17.3 (≈ 54.1 µM) | 11.2 (≈ 35 µM) | 23.3 (≈ 72.8 µM) | 18.1 (≈ 56.6 µM) |
